What was measured:
Format in all cases: in vivo
sympathetic nerve = experiment: RR interval by Holter ECG after oral GABA in Beagle dogs; conditions: 10 month old Beagle dogs
Description: Three 10 month old Beagle dogs were confined in darkness from 19:00 (7pm) until 7:00 (7am). An electrocardiogramr was obtained under free movement using a Holter ECG recorder (wireless installation-type ECG recorder). An electrocardiogram was obtained every 30 minutes for 1 minute. A capsule containing 300 mg/kg body weight of GABA was orally administered to each dog just before the dark period. As a control, an empty capsule was administered.
An RR interval (msec, inverse number of a heart rate) relative to the time that lapsed after administration was measured.

senior dogs [1] = experiment: Dog food mixed with GABA fed to senior dogs, observation of age-related conditions; conditions: 2 weeks
Description: Dog food was mixed with GABA (30 mg/kg body weight). Mongrel dog A (17 years old) was fed this mixture once a day in the evening for 2 weeks. […] Dog food was mixed with GABA (30 mg/kg body weight). Mongrel dog B (14 years old) was fed this mixture once a day for 2 weeks. […] Dog food was mixed with GABA (30 mg/kg body weight). Toy poodle A (15 years old) was fed this mixture once a day for 2 weeks. […] Dog food was mixed with GABA (30 mg/kg body weight). Toy poodle B (12 years old) was fed this mixture once a day for 2 weeks. […] Dog food was mixed with GABA (30 mg/kg body weight). Pomeranian A (14 years old) was fed this mixture once a day for 2 weeks. […] Dog food was mixed with GABA (30 mg/kg body weight). Shiba Ken (Japanese breed) A (16 years old) was fed with this mixture once a day for 2 weeks.

senior dogs [2] = experiment: Intravenous SKF 97541 in a senior dog, turning motion; conditions: Shiba Ken B (15 years old), single intravenous dose of from 0.01 to 0.1 mg/kg body weight
Description: SKF 97541 was intravenously administered once to Shiba Ken B (15 years old) at a dose of from 0.01 to 0.1 mg/kg body weight.

[3] = Mongrel dog B (14 years old), 30 mg/kg body weight in dog food once a day
[4] = Pomeranian A (14 years old), 30 mg/kg body weight in dog food once a day
[5] = Shiba Ken A (16 years old), 30 mg/kg body weight in dog food once a day
[6] = Toy poodle A (15 years old), 30 mg/kg body weight in dog food once a day
[7] = Toy poodle B (12 years old), 30 mg/kg body weight in dog food once a day

Row | SMILES | stimulus of the sympathetic nerve (sympathetic nerve; GABA 300 mg/kg body weight oral capsule) | average RR interval (inverse number of a heart rate) (sympathetic nerve; GABA 300 mg/kg body weight oral capsule before dark period, approximately 2 to 9 hours after administration, vs empty capsule) | forced and labored breathing (senior dogs [1]; Mongrel dog A (17 years old), 30 mg/kg body weight in dog food once a day in the evening) | drinking behaviour (senior dogs [1]; [3]) | leg trembling (senior dogs [1]; [3]) | mobility and general health (senior dogs [1]; [3]) | continuous sleeping all day long (senior dogs [1]; [4]) | desire to go for a walk (senior dogs [1]; [4]) | general health and activity level (senior dogs [1]; [4]) | ability to move around (senior dogs [1]; [5]) | mobility (senior dogs [1]; [5]) | behaviour towards owner (senior dogs [1]; [6]) | difficult breathing (senior dogs [1]; [6]) | sense of hearing and sense of smell, mobility and general health (senior dogs [1]; [6]) | mobility (senior dogs [1]; [7]) | walking (tottering steps before administration) (senior dogs [1]; [7]) | turning motion (senior dogs [2])
1 | NCCCC(=O)O [GABA, γ-aminobutyric acid] | stimulus of the sympathetic nerve was observed | shortened | disappeared | drank water on its own | disappeared | improvement in mobility and general health was observed | decreased | clearly showed signs that he wanted to go for a walk | improvement in general health and activity level was observed | able to move around easier and clearly with less pain | improvement in mobility was observed | sought out his owner and wanted to stay by him | decreased | improvement | improvement in mobility was observed | walked firmly with steady steps | –
2 | CP(=O)(O)CCCN [SKF 97541, 3-aminopropyl(methyl)phosphinic acid] | – | – | – | – | – | – | – | – | – | – | – | – | – | – | – | – | eliminated at any dose
